According to ChEMBL document CHEMBL6127052, “Discovery of membrane-targeting amphiphilic honokiol derivatives containing an oxazolethione moiety to combat methicillin-resistant Staphylococcus aureus (MRSA) infections” (Eur J Med Chem, 2024):
Calls of active or inactive are those of the source. No cut-off for these calls is given here.

Experiments:
[1] = Toxicity in KM mouse infected with methicillin-resistant Staphylococcus aureus clinical isolate M12 assessed as damage in kidney at 5 to 10 mg/kg, sc measured after 24 hrs by H and E staining based analysis; assay type: organism-based; details: in vivo, dose 5-10 mg/kg
[2] = Toxicity in BALB/c mouse assessed as edema in hepatocytes at 15 mg/kg, ip bid for 7 days; assay type: organism-based; details: in vivo, 168 h, time 7 day
[3] = Toxicity in KM mouse assessed as inflammatory cell infiltration in hepatocytes at 20 mg/kg, sc measured after 24 hrs by H and E staining based analysis; assay type: organism-based; details: in vivo
Staphylococcus aureus [4] = experiment: Antibacterial activity against methicillin-resistant Staphylococcus aureus clinical isolate M12 infected in KM mouse assessed as intact skin at infection site at 10 mg/kg, sc measured after 24 hrs; assay type: functional, organism-based
[5] = Toxicity in BALB/c mouse assessed as change in blood biochemistry index at 15 mg/kg, ip bid for 7 days; assay type: organism-based; details: in vivo, 168 h, time 7 day
[6] = Selectivity index, ratio of HC50 for hemolytic activity in sheep erythrocytes to MIC for antibacterial activity against Staphylococcus aureus ATCC 29213; assay type: toxicity, cell-based, RBC
Staphylococcus aureus [7] = experiment: Antibacterial activity against methicillin-resistant Staphylococcus aureus clinical isolate M12 infected in KM mouse assessed as decrease in neutrophils at subcutaneous tissues at 5 to 10 mg/kg, sc measured after 24 hrs; assay type: functional, organism-based; details: dose 5-10 mg/kg
Staphylococcus aureus [8] = experiment: Antibacterial activity against methicillin-resistant Staphylococcus aureus clinical isolate M13 by CLSI based micro-broth dilution method; assay type: functional
[9] = Toxicity in KM mouse assessed as inflammatory cell infiltration in renal tubular epithelial cells at 20 mg/kg, sc measured after 24 hrs by H and E staining based analysis; assay type: organism-based; details: in vivo
Staphylococcus aureus [10] = experiment: Antibacterial activity against methicillin-resistant Staphylococcus aureus N315 by CLSI based micro-broth dilution method; assay type: functional
Staphylococcus aureus [11] = experiment: Induction of morphological changes in methicillin-resistant Staphylococcus aureus clinical isolate M12 assessed as torn cell membrane at 8 times MIC incubated for 4 hrs by SEM analysis; assay type: functional, organism-based
[12] = Toxicity in KM mouse assessed as intact structure in skin layers at 20 mg/kg, sc measured after 24 hrs by H and E staining based analysis; assay type: organism-based; details: in vivo
Staphylococcus aureus [13] = experiment: (§1) Antibacterial activity against methicillin-resistant Staphylococcus aureus clinical isolate M12 infected in sepsis BALB/c mouse model assessed as decrease in necrosis in renal tubular epithelial cells at 6 to 12 mg/kg, ip administered consecutively at 12 hr-interval for 24 hrs measured after 24 hrs post-last dose by H and E staining based analysis; assay type: functional, organism-based; details: dose 6-12 mg/kg, time 48.0 hrs
[14] = Hemolytic activity in sheep erythrocytes incubated for 1 hr by absorbance based assay; assay type: toxicity, cell-based, Ovis aries, Erythrocyte
[15] = Toxicity in KM mouse assessed as pathological change in heart at 20 mg/kg, sc measured after 24 hrs by H and E staining based analysis; assay type: organism-based; details: in vivo
Staphylococcus aureus [16] = experiment: Induction of morphological changes in methicillin-resistant Staphylococcus aureus clinical isolate M12 assessed as concavity in cell membrane at 8 times MIC incubated for 4 hrs by SEM analysis; assay type: functional, organism-based
Staphylococcus aureus [17] = experiment: Disruption of cell membrane in methicillin-resistant Staphylococcus aureus clinical isolate M12 assessed as fold increase in DNA leakage at 8 times MIC incubated for 4 hrs by […] relative to control; assay type: functional
Staphylococcus aureus [18] = experiment: as §1, with “degeneration of hepatocytes” for “necrosis in renal tubular epithelial cells”, “6” for “6 to 12”; assay type: functional, organism-based; details: time 48.0 hrs
[19] = Toxicity in BALB/c mouse assessed as feeding abnormality at <15 mg/kg, ip bid for 7 days; assay type: organism-based; details: in vivo, 168 h, time 7 day
Staphylococcus aureus [20] = experiment: Antibacterial activity against methicillin-resistant Staphylococcus aureus clinical isolate M14 by CLSI based micro-broth dilution method; assay type: functional
[21] = Toxicity in BALB/c mouse assessed as animal death at 40 mg/kg, ip bid for 7 days; assay type: organism-based; details: in vivo, 168 h, time 7 day
[22] = Toxicity in BALB/c mouse assessed as inflammatory cell infiltration in renal tubular epithelial cells at 15 mg/kg, ip bid for 7 days; assay type: organism-based; details: in vivo, 168 h, time 7 day
Staphylococcus aureus [23] = experiment: Bactericidal activity against Staphylococcus aureus ATCC 29213 assessed as inhibition of bacterial growth at 4 times MIC incubated upto 8 hrs by time-kill assay; assay type: functional, organism-based
Staphylococcus aureus [24] = experiment: Induction of membrane permeability in methicillin-resistant Staphylococcus aureus clinical isolate M12 at 8 to 32 times MIC measured for 15 mins by SYTOX Green dye based analysis; assay type: functional, organism-based
Staphylococcus aureus [25] = experiment: Bactericidal activity against methicillin-resistant Staphylococcus aureus clinical isolate M12 infected in KM mouse assessed as decrease in inflammatory cells in dermis at 10 mg/kg, sc measured after 24 hrs; assay type: functional, organism-based
[26] = Toxicity in KM mouse assessed as pathological change in spleen at 20 mg/kg, sc measured after 24 hrs by H and E staining based analysis; assay type: organism-based; details: in vivo
Staphylococcus aureus [27] = experiment: Induction of resistance development in Staphylococcus aureus ATCC 29213 at 0.5 times MIC treated for 20 days of consecutive passages; assay type: functional, organism-based; details: time 20.0 day
[28] = Toxicity in KM mouse assessed as change in WBC count at 20 mg/kg, sc measured after 24 hrs; assay type: organism-based; details: in vivo
[29] = Toxicity in sepsis BALB/c mouse model infected with methicillin-resistant Staphylococcus aureus clinical isolate M12 assessed as survival rate at 6 mg/kg, ip administered consecutively at 12 hr-interval for 7 days measured after 24 hrs post-last dose; assay type: organism-based; details: in vivo, 192 h, time 8 day
Staphylococcus aureus [30] = experiment: Antibacterial activity against methicillin-resistant Staphylococcus aureus clinical isolate M12 infected in KM mouse assessed as reduction in IL-6 level at infection site at 5 mg/kg, sc measured after 24 hrs by ELISA; assay type: functional
Staphylococcus aureus [31] = experiment: Disruption of cell membrane in methicillin-resistant Staphylococcus aureus clinical isolate M12 assessed as increase in protein leakage incubated for 4 hrs by BCA assay; assay type: functional, organism-based; details: dose <= 16.0 µg/ml
Staphylococcus aureus [32] = experiment: Antibacterial activity against methicillin-resistant Staphylococcus aureus clinical isolate M22 by CLSI based micro-broth dilution method; assay type: functional
Staphylococcus aureus [33] = experiment: Antibacterial activity against methicillin-resistant Staphylococcus aureus clinical isolate M21 by CLSI based micro-broth dilution method; assay type: functional
Staphylococcus aureus [34] = experiment: as §1, with “pathological change” for “necrosis”, “white medulla of spleen” for “renal tubular epithelial cells”, “6” for “6 to 12”; assay type: functional, organism-based; details: time 48.0 hrs
[35] = Toxicity in KM mouse assessed as inflammatory cell infiltration in cardiac muscle fibers at 20 mg/kg, sc measured after 24 hrs by H and E staining based analysis; assay type: organism-based; details: in vivo
Staphylococcus aureus [36] = experiment: Antibacterial activity against Staphylococcus aureus ATCC 29213 by CLSI based micro-broth dilution method; assay type: functional
Staphylococcus aureus [37] = experiment: Induction of morphological changes in methicillin-resistant Staphylococcus aureus clinical isolate M12 assessed as rupture of bacterial bodies at 8 times MIC incubated for 4 hrs by SEM analysis; assay type: functional, organism-based
Staphylococcus aureus [38] = experiment: Induction of cell membrane damage in methicillin-resistant Staphylococcus aureus clinical isolate M12 assessed as increase in red fluorescence at 8 times MIC incubated for 4 hrs by DAPI/PI staining based analysis; assay type: functional, organism-based
Staphylococcus aureus [39] = experiment: Antibacterial activity against methicillin-resistant Staphylococcus aureus clinical isolate M12 incubated for 16 to 18 hrs in presence of cardiolipin; assay type: functional; details: time 16-18 hrs

**Q.** For `C=CCc1cc(-c2ccc(OCCC[N+](C)(C)CC(=O)NCCCC)c(CC=C)c2)c2oc(=S)n(Cc3ccc(F)cc3)c2c1.[Br-]`, which Activity [1] is on record?
**A.** The Activity was “Non-Toxic”.

**Q.** What about the Activity [2] of the same compound?
**A.** Its Activity is “Non-Toxic”.

**Q.** And the Activity [3]?
**A.** The Activity was “Non-Toxic”.

**Q.** What about the Activity (Staphylococcus aureus [4]) of the same compound?
**A.** Its Activity is “Active”.

**Q.** And the Activity [5]?
**A.** Its Activity is “Non-Toxic”.

**Q.** What about the selectivity ratio [6] of the same compound?
**A.** Its selectivity ratio is 95.1.

**Q.** What about the Activity (Staphylococcus aureus [7]) of the same compound?
**A.** Its Activity is “Active”.

**Q.** What about the MIC (Staphylococcus aureus [8]) of the same compound?
**A.** The MIC was 4 µg/mL.

**Q.** And the Activity [9]?
**A.** Its Activity is “Non-Toxic”.

**Q.** And the MIC (Staphylococcus aureus [10])?
**A.** Its MIC is 4 µg/mL.

**Q.** What about the Activity (Staphylococcus aureus [11]) of the same compound?
**A.** The Activity was “Active”.

**Q.** What about the Activity [12] of the same compound?
**A.** Its Activity is “Non-Toxic”.

**Q.** What about the Activity (Staphylococcus aureus [13]) of the same compound?
**A.** The Activity was “Active”.

**Q.** And the HC50 at 1 h [14]?
**A.** The HC50 at 1 h was 157 µg/mL.

**Q.** What about the Activity [15] of the same compound?
**A.** Its Activity is “Non-Toxic”.

**Q.** And the Activity (Staphylococcus aureus [16])?
**A.** Its Activity is “Active”.

**Q.** What about the “fold change (FC)” value (Staphylococcus aureus [17]) of the same compound?
**A.** Its value is about 4.

**Q.** What about the Activity (Staphylococcus aureus [18]) of the same compound?
**A.** The Activity was “inactive”.

**Q.** What about the Activity [19] of the same compound?
**A.** Its Activity is “Non-Toxic”.

**Q.** And the MIC (Staphylococcus aureus [20])?
**A.** Its MIC is 2 µg/mL.

**Q.** And the Activity [21]?
**A.** The Activity was “Toxic”.

**Q.** What about the Activity [22] of the same compound?
**A.** The Activity was “Non-Toxic”.

**Q.** And the Activity (Staphylococcus aureus [23])?
**A.** Its Activity is “Active”.

**Q.** And the Activity (Staphylococcus aureus [24])?
**A.** Its Activity is “Active”.

**Q.** And the Activity (Staphylococcus aureus [25])?
**A.** The Activity was “Active”.

**Q.** What about the Activity [26] of the same compound?
**A.** The Activity was “Non-Toxic”.

**Q.** What about the Activity (Staphylococcus aureus [27]) of the same compound?
**A.** The Activity was “inactive”.

**Q.** And the Activity [28]?
**A.** Its Activity is “Non-Toxic”.

**Q.** What about the Survival [29] of the same compound?
**A.** Its Survival is 16.7%.

**Q.** What about the Activity (Staphylococcus aureus [30]) of the same compound?
**A.** The Activity was 65.6 pg/mL.

**Q.** And the Activity (Staphylococcus aureus [31])?
**A.** Its Activity is “Dose-Dependent Effect”.

**Q.** And the MIC (Staphylococcus aureus [32])?
**A.** The MIC was 4 µg/mL.

**Q.** What about the MIC (Staphylococcus aureus [33]) of the same compound?
**A.** The MIC was 2 µg/mL.

**Q.** What about the Activity (Staphylococcus aureus [34]) of the same compound?
**A.** The Activity was “inactive”.

**Q.** And the Activity [35]?
**A.** Its Activity is “Non-Toxic”.

**Q.** And the MIC (Staphylococcus aureus [36])?
**A.** The MIC was 2 µg/mL.

**Q.** And the Activity (Staphylococcus aureus [37])?
**A.** The Activity was “Active”.

**Q.** What about the Activity (Staphylococcus aureus [38]) of the same compound?
**A.** The Activity was “Active”.

**Q.** And the MIC (Staphylococcus aureus [39])?
**A.** The MIC was 32 µg/mL.
